The test system of test [1] is OPM-2 human multiple myeloma cell line. Description: Cell Viability Assay (OPM-2 10 FBS). It counts as cell-based. The settings on record: OPM-2 cells, CellTiter-Glo. Summed up:
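ATP-based luminescence (CellTiter-Glo) measured after a 16 h compound treatment of OPM-2 cells seeded at 3000 cells/well in 10% FBS medium. IC50 values derived by 4-parameter logistic fitting of serial dilutions.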
A general note: ATP-based viability assays read luminescence as a measure of living cells.

Test [2] concerns the target T1, Mcl-1/Bim interaction, recombinant human Mcl-1 (171-327) (Homo sapiens, UniProt Q07820).
T1 construct: made in house
The test can be described thus: Cell free Mcl-1: Bim Affinity Assay (Mcl-1 HTRF). In kind it is binding. Summed up: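 Biotin-Bim(51-76) peptide, TR-FRET readout, overnight incubation; IC50 from duplicate competition curves, 4-parameter fit.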
Background: Time-resolved FRET reads energy transfer from a long-lived donor to a nearby acceptor.

[3] abbreviates: TR-FRET, 0.1 nM Mcl-1 (171-327), 0.05 nM biotin-Bim (51-76).
[4] abbreviates: cell free Mcl-1:Bim TR-FRET, recombinant human Mcl-1 (171-327).
[5] abbreviates: Homo sapiens, OPM-2, 16 h, 16 h.

Drawing on patent publication US12091425B2 (AMGEN INC., priority 2016, dated 2024), this text covers IC50 for 18 molecules.

T1 sequence (Q07820 171-327): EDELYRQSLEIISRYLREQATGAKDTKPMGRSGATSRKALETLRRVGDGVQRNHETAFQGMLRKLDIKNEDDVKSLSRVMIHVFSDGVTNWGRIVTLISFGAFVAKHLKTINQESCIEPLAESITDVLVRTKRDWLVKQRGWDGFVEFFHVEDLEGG

As to `CC[C@H](O[C@H]1/C=C/C[C@H](C)[C@@H](C)S(=O)(=O)NC(=O)c2ccc3c(c2)N(C[C@@H]2CC[C@H]21)C[C@@]1(CCCc2cc(Cl)ccc21)CO3)C(=O)N(C)C` (single isomer, unassigned) [Example 430], the values for the IC50 in test [1] (16 h) and in test [2] (setting [3]) were 216 nM and 0.743 nM, respectively.

Take `CO[C@H](C)C[C@@H]1[C@@H](C)C/C=C/[C@H](O)[C@@H]2CC[C@H]2CN2C[C@@]3(CCCc4cc(Cl)ccc43)COc3ccc(cc32)C(=O)NS1(=O)=O` (single isomer, unassigned) [Example 540]: the IC50 in test [1] (16 h) came to 94.1 nM; in test [2] (setting [4]) it was 0.236 nM.

For the molecule `C[C@@H]1[C@@H](C)C/C=C/[C@H](OCCNc2ccccc2)[C@@H]2CC[C@H]2CN2C[C@@]3(CCCc4cc(Cl)ccc43)COc3ccc(cc32)C(=O)NS1(=O)=O` [Example 11, (1S,3′R,6′R,7′S,8′E,11′S,12′R)-6-chloro-11′,12′-dimethyl-7′-(2-(phenylamino)ethoxy)-3,4-dihydro-2H,15′H-spiro[naphthalene-1,22′-[20]oxa[13]thia[1,14]diazatetracyclo[14.7.2.0^3,6.0^19,24]pentacosa[8,16,18,24]tetraen]-15′-one 13′,13′-dioxide], the values for the IC50 in test [1] (setting [5]) and in test [2] (setting [3]) were 3650 nM and 5.22 nM, respectively.

Take `COC(=O)CN1CC/C=C/[C@H](O)[C@@H]2CC[C@H]2CN2C[C@@]3(CCCc4cc(Cl)ccc43)COc3ccc(cc32)C(=O)NS1(=O)=O` [Example 32, methyl((1S,3′R,6′R,7′S,8′E)-6-chloro-7′-hydroxy-13′,13′-dioxido-15′-oxo-3,4-dihydro-2H,12′H-spiro[naphthalene-1,22′-[20]oxa[13]thia[1,12,14]triazatetracyclo[14.7.2.0^3,6.0^19,24]pentacosa[8,16,18,24]tetraen]-12′-yl)acetate]: the IC50 is 546 nM in test [1] (setting [5]) and 0.623 nM in test [2] (setting [3]).

As for `CCC1CCC=CC(OC2CCOC2=O)C2CCC2CN2CC3(CCCc4cc(Cl)ccc43)COc3ccc(cc32)C(=O)NS1(=O)=O` (single isomer, unassigned) [Example 424], the IC50 in test [1] (setting [5]) was determined as 248 nM; in test [2] (setting [3]) it was 0.501 nM.

Take `C[C@H]1/C=C/[C@@H](O)[C@@H]2CC[C@H]2CN2C[C@@]3(CCCc4cc(Cl)ccc43)COc3ccc(cc32)C(=O)NS(=O)(=O)CC1(C)C` (single isomer, unassigned) [Example 494]: the IC50 in test [1] (16 h) stood at 3680 nM; in test [2] (setting [4]) it was 8.81 nM.

On to `O=C1NS(=O)(=O)[C@H]2CCC[C@@H](/C=C/[C@H](O)[C@@H]3CC[C@H]3CN3C[C@@]4(CCCc5cc(Cl)ccc54)COc4ccc1cc43)C2` (single isomer, unassigned) [Example 110], for which the IC50 turned out to be 5580 nM in test [1] (16 h) and 1.34 nM in test [2] (setting [3]).

On to `COCCO[C@H]1/C=C\C[C@H](C)NS(=O)(=O)NC(=O)c2ccc3c(c2)N(C[C@@H]2CC[C@H]21)C[C@@]1(CCCc2cc(Cl)ccc21)CO3` (single isomer, unassigned) [Example 64], for which the IC50 in test [1] (setting [5]) turned out to be 399 nM; in test [2] (setting [3]), 0.678 nM.

Consider `COC(=O)CC[C@]1(C)CC/C=C\[C@H](O)[C@@H]2CC[C@H]2CN2C[C@@]3(CCCc4cc(Cl)ccc43)COc3ccc(cc32)C(=O)NS1(=O)=O` (single isomer, unassigned) [Example 562], for which the results for the IC50 in test [1] (16 h) and in test [2] (setting [4]) were 986 nM and 1.12 nM, respectively.

For `CC[C@@H]1CC/C=C/[C@H](OCC(=O)NCCO)[C@@H]2CC[C@H]2CN2C[C@@]3(CCCc4cc(Cl)ccc43)COc3ccc(cc32)C(=O)NS1(=O)=O` [Example 996, 2-(((1S,3′R,6′R,7′S,8′E,12′R)-6-chloro-12′-ethyl-13′,13′-dioxido-15′-oxo-3,4-dihydro-2H-spiro[naphthalene-1,22′-[20]oxa[13]thia[1,14]diazatetracyclo[14.7.2.0^3,6.0^19,24]pentacosa [8,16,18,24]tetraen]-7′-yl)oxy)-N-(2-hydroxyethyl)acetamide], the IC50 in test [1] (Homo sapiens, OPM-2, 16 h, 16 h incubation) was 8190 nM; in test [2] (setting [3]) it was 0.487 nM.

For `CO[C@H]1/C=C/CC[C@@H](C[C@@H](C)O)S(=O)(=O)NC(=O)c2ccc3c(c2)N(C[C@@H]2CC[C@H]21)C[C@@]1(CCCc2cc(Cl)ccc21)CO3` (single isomer, unassigned) [Example 548], the IC50 in test [1] (16 h) worked out at 478 nM; in test [2] (setting [4]), 0.275 nM.

Turning to `C=CCN1CC/C=C/[C@H](O)[C@@H]2CC[C@H]2CN2C[C@@]3(CCCc4cc(Cl)ccc43)COc3ccc(cc32)C(=O)NS1(=O)=O` [Example 42, (1S,3′R,6′R,7′S,8′E)-6-chloro-7′-hydroxy-12′-(2-propen-1-yl)-3,4-dihydro-2H,15′H-spiro[naphthalene-1,22′-[20]oxa[13]thia[1,12,14]triazatetracyclo[14.7.2.0^3,6.0^19,24]pentacosa[8,16,18,24]tetraen]-15′-one 13′,13′-dioxide], the IC50 in test [1] (setting [5]) worked out at 842 nM; in test [2] (setting [3]), 0.57 nM.

Regarding `CC1CC(=O)N(C)CC2CCC2CN2CC3(CCCc4cc(Cl)ccc43)COc3ccc(cc32)C(=O)NS(=O)(=O)C1C` (single isomer, unassigned) [Example 152], the values for the IC50 in test [1] (setting [5]) and in test [2] (setting [3]) were 29200 nM and 19.6 nM, respectively.

With `O=C1NS(=O)(=O)[C@@H]2CCC[C@H]2C/C=C/[C@H](O)[C@@H]2CC[C@H]2CN2C[C@@]3(CCCc4cc(Cl)ccc43)COc3ccc1cc32` (single isomer, unassigned) [Example 326], the IC50 in test [1] (16 h) worked out at 20000 nM; in test [2] (setting [3]) it was 5.51 nM.

Consider `O=C1NS(=O)(=O)[C@H]2CCC[C@H]2C/C=C/[C@H](O)[C@@H]2CC[C@H]2CN2C[C@@]3(CCCc4cc(Cl)ccc43)COc3ccc1cc32` (single isomer, unassigned) [Example 324], for which the figures for the IC50 in test [1] (16 h) and in test [2] (setting [3]) were 1940 nM and 1.68 nM, respectively.

Turning to `C[C@@H]1C/C=C/[C@H](O)[C@@H]2CC[C@H]2CN2C[C@@]3(CCCc4cc(Cl)ccc43)COc3ccc(cc32)C(=O)NS(=O)(=O)N1C[C@@H]1CCCO1` (single isomer, unassigned) [Example 51], the IC50 in test [1] (setting [5]) is 1830 nM; in test [2] (setting [3]), 5.59 nM.

With `COCCCO[C@H]1/C=C/C[C@H](C)[C@@H](C)S(=O)(=O)NC(=O)c2ccc3c(c2)N(C[C@@H]2CC[C@H]21)C[C@@]1(CCCc2cc(Cl)ccc21)CO3` [Example 512, (1S,3′R,6′R,7′S,8′E,11′S,12′R)-6-chloro-7′-(3-methoxypropoxy)-11′,12′-dimethyl-3,4-dihydro-2H,15′H-spiro[naphthalene-1,22′-[20]oxa[13]thia[1,14]diazatetracyclo[14.7.2.0^3,6.0^19,24]pentacosa [8,16,18,24]tetraen]-15′-one 13′,13′-dioxide], the half-inhibitory concentration (IC50) in test [1] (setting [5]) turned out to be 362 nM; in test [2] (setting [4]), 0.998 nM.

Consider `C[C@@H]1[C@@H](C)C/C=C\[C@H](OCCN2CCOCC2)[C@@H]2CC[C@H]2CN2C[C@@]3(CCCc4cc(Cl)ccc43)COc3ccc(cc32)C(=O)NS1(=O)=O` [Example 724, (1S,3′R,6′R,7′S,8′Z,11′S,12′R)-6-chloro-11′,12′-dimethyl-7′-(2-(4-morpholinyl)ethoxy)-3,4-dihydro-2H,15′H-spiro[naphthalene-1,22′-[20]oxa[13]thia[1,14]diazatetracyclo[14.7.2.0^3,6.0^19,24]pentacosa [8,16,18,24]tetraen]-15′-one 13′,13′-dioxide], for which the IC50 in test [1] (setting [5]) was 420 nM; in test [2] (setting [4]), 0.485 nM.

Usually IC50 stands for the concentration that inhibits the measured activity by half.
